The subject of test [1] is metastatic colon adenocarcinoma (LoVo). Briefly: MTT viability assay, LoVo. It is filed as cell-based, human. The protocol:
When the confluence was greater than 70%, adherent cell lines were detached from the bottle surface with a TrypLE solution and then used in assays or reduced. The cells were collected into centrifuge tubes and centrifuged at 1000× g for 5 min at room temperature. The supernatant was removed to dry. The cell pellets were then resuspended in an appropriate medium. The cells were counted using a Bürker chamber and resuspended in 96-well plates to a cell density of 10,000 cells per well for MTT assay. For the rhodamine accumulation test and the detection of apoptosis assay, cells were seeded at a density of 30,000 per well. In the migration assay, cells were seeded at a density of 20,000 per well, and monolayer formation was awaited.
In this study, normal human dermal fibroblasts (NHDFs), breast cancer cells (MCF7), human lung adenocarcinoma cells (A549), murine fibroblasts (L929), colon adenocarcinoma cells (HT29), and colorectal adenocarcinoma cells (LoVo) were used. All cell lines were cultured in the recommended media. […] The human lung adenocarcinoma cell line A549 and breast cancer cell line MCF-7 were obtained from the ECACC. These cell lines were cultured in Eagle’s minimal essential medium (MEM). Murine fibroblast L929 (Sigma-Aldrich, Merck Group, Headquarters, Darmstadt, Germany; the European Collection of Authenticated Cell Cultures—ECACC) cells were grown in DMEM. […] All media were supplemented with 10% FBS and 100 µg/mL of penicillin–streptomycin.
All compounds were dissolved in DMSO and the reference drugs were dissolved in physiological saline to concentrations of 10 mM. Concentrations from 1 to 500 μM in the media recommended for the cell lines were prepared for the tests.
All of the synthesized derivatives were evaluated via the MTT assay. All cell lines were seeded into 96-well plates at a density of 10,000 cells per well. To allow the cells to adhere to the surface of the plates, they were incubated overnight before the application of the test compounds. […] The tests were performed for concentrations of 1, 5, 10, 25, 50, 100, 250, and 500 μM. The solutions of the test compounds were removed from the culture on the 96-well plates. […] The supernatant was then removed. The violet crystal was dissolved in isopropanol for 30 min by shaking. Absorbance was measured at 570 nm.
Biological assays were performed in three independent replicates, and each replicate used four samples. Three repetitions were made for the ELISA determinations. For the assessment of cytotoxicity, mathematical models were developed using the GraphPad PRISM software, based on which CC50 was determined. The values of CC50 were estimated based on nonlinear regression using the dependence of the biological effect on the molar concentrations of the compounds (four-parameter logistic model with Hill slope).

The test system of test [2] is breast adenocarcinoma (MCF7). Kind of test: MTT viability assay, MCF7. Particulars: Homo sapiens; MCF7, MTT, tested 1–500 µM. It is filed as cell-based, human. On the technique in general: Tetrazolium dyes change colour on reduction, which living cells bring about.
Test [3] relates to lung adenocarcinoma (A549). Kind of test: MTT viability assay, A549. It is filed as cell-based, human.
Another test has as its system p53. Kind of test: p53 Human ELISA Kit, HT29 lysate. It is filed as cell-based. Particulars: lysate of HT29 cells treated with 3g; SD ±0.97. The protocol:
The assay was performed on a lysate of the HT29 colon adenocarcinoma cell line treated with compound 3g. The microwells of the 96-well plate were washed 2 times with approximately 400 µL of washing buffer per well. The washing buffer was left in the wells for approximately 15 s prior to aspiration. Care was taken not to scratch the surface of the microwells. After the final rinsing step, the wells were emptied. An absorbent swab was used to remove excess wash buffer. Standard dilutions were applied to the microwell plate. Two rows of human p53 standard were prepared at dilutions ranging from 50.00 to 0.78 U/mL. […] The color change was monitored with an ELISA measured at 620 nm. The colored product was formed in proportion to the quantity of human p53 protein present in the sample and the standard. […] The results were read immediately after the addition of the enzyme stop solution. Absorbance was measured with a spectrophotometer at 450 nm. A standard curve was prepared from 7 dilutions of the human p53 standard from which the values for compound 3g were read.
(§1) Biological assays were performed in three independent replicates, and each replicate used four samples. […] For the assessment of cytotoxicity, mathematical models were developed using the GraphPad PRISM software, based on which CC50 was determined. […]
For orientation: ELISA stands for enzyme-linked immunosorbent assay.

The next test concerns BCL-2. Briefly: BCL-2 Human ELISA Kit, HT29 lysate. Particulars: lysate of HT29 cells treated with 3g; SD ±0.11. It is filed as cell-based. The protocol: The assay was performed on a lysate of the HT29 colon adenocarcinoma cell line treated with compound 3g. The wells of the assay microplate were coated with a BCL-2-specific antibody, and the BCL-2 present in the test and standards was bound to the antibodies adsorbed in the microwells, which were washed twice with 400 µL of washing buffer per well with careful aspiration. The washing buffer was left in the wells for 15 s before aspiration. Care was taken not to scratch the surface of the microwells. Following the final washing step, the wells were emptied and excess washing buffer was discarded. Two rows of the human standard BCL-2 were prepared at dilutions ranging from 32.0 to 0.5 ng/mL. Biotin conjugate was prepared, and 50 µL of biotin conjugate was added to all wells, covered with adhesive foil, and incubated at room temperature (18 to 25 °C) for 2 h on a microplate shaker. The adhesive film was removed and washed 3 times. […] The color change of the mixture was monitored with an ELISA reader at 620 nm. […] The results were read immediately after the stop solution was added. The reading was taken at the original wavelength of 450 nm. […]
as §1

Consider `Cc1noc(N)c1-c1nc2c(NCCCN(C)C)ncnc2o1` [Compound 3g, 2-(5-Amino-3-methylisoxazol-4-yl)-7-N-[3-(N,N-dimethylamino)propyl]aminooxazolo[5,4-d]pyrimidine], for which the “SI (selectivity index)” value is 0.695 in test [1] (CC50 NHDF / CC50 LoVo) and 1.123 in test [3] (CC50 NHDF / CC50 A549). Also, the CC50 in test [1] (Homo sapiens, LoVo, MTT, tested 1–500 µM) stood at 224 ± 17.1 µM; in test [2], 209 ± 9.67 µM; in test [3] (Homo sapiens, A549, MTT, tested 1–500 µM), 138 ± 12.9 µM. In addition, in the test with p53, the p53 concentration is 4.22 [U/mL]. Further, the BCL-2 concentration in the test with BCL-2 was determined as 0.41 ng/mL.

Broadly, the CC50 is the concentration that lowers cell viability or growth by half.

For the origin of these results see PMC9569971, “New Oxazolo[5,4-d]pyrimidines as Potential Anticancer Agents: Their Design, Synthesis, and In Vitro Biological Activity Research” (International Journal of Molecular Sciences, 2022).
